Data on four compounds can be found in patent US10829719B2, “Sodium methyl glycine-N,N-diacetic acid compound, process to prepare it and use thereof” (NOURYON CHEMICALS INTERNATIONAL B.V., priority 2017, dated 2020).

Series [1] in a line: Dissolution rate of granules in deionized water monitored by conductivity. Type of series: physicochemical. As to conditions: for time needed (s) to reach 75% dissolved / time needed (s) to reach 90% dissolved / time needed (s) to reach 95% dissolved / time needed (s) to reach 100% dissolved: 1 gram granules in 75 gram deionized water, stirred, trisodium salt. How it is done: The dissolution rate of these granules was compared to the dissolution rate of the original granules that were not heat treated:
1 gram of granules was added in one shot to a stirred container filled with 75 gram deionized water, equipped with a conductivity measurement probe. The conductivity of the dispersion was monitored in time. The degree of dissolution was determined by dividing the conductivity by the value finally obtained when the sample was fully dissolved yielding a stable level of conductivity.
(The measurements were done in duplicate yielding the same result)

The nature of series [2]: Free flowability and weight gain after storage in climate chamber at 40° C. and 75% relative humidity. Type of series: physicochemical. As to conditions: mean of three dishes; for fraction free flowing (%) Original / weight gain (%) Original: non-treated sample, stored 5 days at 40° C. and 75% relative humidity; for fraction free flowing (%) Treated / weight gain (%) Treated: sample dried 4 hours at 160° C., then stored 5 days at 40° C. and 75% relative humidity. The procedure: The compounds obtained in Examples 1 and 3 were dried 4 hours at 160° C. Subsequently, 5 grams of each sample were distributed evenly over the bottom of a (separate) crystallization dish (diameter 10 cm) and stored for 5 days in a climate chamber at 40° C. and 75% relative humidity. As a reference also the non-treated samples, as well as a sample of Trilon M granules (Na3-MGDA solid ex BASF), were stored in the same climate chamber at the same time.
To improve reliability of the testing, three separate dishes of all samples were stored at the same conditions.
After five days the dishes were weighed and the gain in mass of the contents was determined.
To estimate the amount of material that was still free flowing, the dishes were first tapped gently and then were mounted vertically to estimate the amount of material that remained sticking on the glass surface versus the amount of granular material ending on the bottom.

Consider `CC(C(=O)[O-])N(CC(=O)[O-])CC(=O)[O-].[Na+].[Na+].[Na+]` (single isomer, unassigned) [type I, methyl glycine-N,N-diacetic acid trisodium salt, reference compound], for which, in series [1], the “time needed (s) to reach 75% dissolved” value was 40 s, the “time needed (s) to reach 90% dissolved” value was 110 s, the “time needed (s) to reach 95% dissolved” value is reported as 160 s and the “time needed (s) to reach 100% dissolved” value is reported as 260 s.
Regarding `CC(C(=O)[O-])N(CC(=O)[O-])CC(=O)[O-].[Na+].[Na+].[Na+]` (single isomer, unassigned) [type III, methyl glycine-N,N-diacetic acid trisodium salt], in series [1], the “time needed (s) to reach 75% dissolved” value is recorded as 22 s, the “time needed (s) to reach 90% dissolved” value turned out to be 36 s, the “time needed (s) to reach 95% dissolved” value amounted to 45 s and the “time needed (s) to reach 100% dissolved” value was 90 s. Further, in series [1] (type III containing granules versus original, not heat treated type I granules), the “dissolution compared to type I containing granules” value is reported as “dissolve much faster”.
As to `CC(C(=O)[O-])N(CC(=O)[O-])CC(=O)[O-].[Na+].[Na+].[Na+]` (centres unmarked) [Example 1, Na3-MGDA], in series [2], the “fraction free flowing (%) Original” value was found to be 40%, the “weight gain (%) Original” value is reported as 11%, the “fraction free flowing (%) Treated” value stood at 65% and the “weight gain (%) Treated” value is given as 27%.
With `CC(C(=O)[O-])N(CC(=O)[O-])CC(=O)[O-].[Na+].[Na+].[Na+]` (centres unmarked) [Example 3, Na3-MGDA], in series [2], the “fraction free flowing (%) Original” value is 20%, the “weight gain (%) Original” value stood at 17%, the “fraction free flowing (%) Treated” value was 80% and the “weight gain (%) Treated” value worked out at 29%.
